This note sets out measurements from patent publication US20240391954A1, “MC4R AGONIST PEPTIDES” (The Regents of the University of Michigan, priority 2021, published 2024).

Molecules are shown by their SMILES. Positions of bridges follow the written chain, without caps; N, C: chain ends. Non-standard residues stand in square brackets, D forms with d. Residues, ends and D or L forms follow the SMILES beside them. d1Nal = N[C@H](Cc1cccc2ccccc12)C(=O)O; d2Nal = N[C@H](Cc1ccc2ccccc2c1)C(=O)O; 3Pal = N[C@@H](Cc1cccnc1)C(=O)O; 4Pal = N[C@@H](Cc1ccncc1)C(=O)O; Cit = NC(=O)NCCC[C@H](N)C(=O)O; Nle = CCCC[C@H](N)C(=O)O; Aib = CC(C)(N)C(=O)O A value given as a limit tells only on which side of the number the result lay.

Assay type in all cases: cell-based
Experiment [1] addresses T1, human MC1R (Homo sapiens, UniProt Q01726).
T1 construct: expressed in transfected cells; host or cells: HEK-293 cells stably expressing hMC1R and the GScAMP22F cAMP sensor
The experiment in a line: split-luciferase cAMP sensor assay, agonist mode, hMC1R. As to conditions: MC4R versus MC1R. The procedure: FIG. 4A-B. (A) Pharmacological properties of exemplary MC4R agonist peptides, including those with improved efficacy in the MC4R+/− mouse (CTX-1211, CTX-1227, and CTX-1228). Concentration-response agonist curves for peptides indicated at the human MC4R (red), human MC3R (blue), human MC5R (green), and human MC1R (black) were determined by a split-luciferase cAMP sensor dynamic assay in HEK-293 cells stably expressing the hMC1R, hMC3R, hMC4R, or hMC5R and the GScAMP22F cAMP sensor. Each data point represents the mean±SEM of two experiments with three replicates each per experiment. Data is normalized to the ECmax of α-MSH. (B) Same as above, for peptides representing reduced activity at the hMC1R. Inset tables indicate EC50 values for the ligand indicated for each receptor.
The assay for the determination of the cAMP response in live cells was described previously. (Yu et al., 2020, Science 368, 428-433; incorporated by reference in its entirety). Cells were seeded at a density of 20,000 cells per well using 384-well poly-D lysine-coated, clear bottom, and black-wall assay plates (Corning Inc. Corning, NJ). Cells were allowed to attach to the plates for 18 to 24 h after which growth media was removed and 20 μl of 4% D-luciferin (Promega) in CO2 independent, serum-free medium (Thermo Fisher Scientific) was added to each well. The luciferase substrate was allowed to permeate the cells for 120 min at 37° C. Intracellular cAMP levels were measured using an FDSS 7000EX Functional Drug Screening System (Hamamatsu Photonics, Hamamatsu, Japan) in the Center for Chemical Genomics at the Life Sciences Institute. This instrument allowed the in-line addition of test-peptides and receptor agonists while simultaneously acquiring the luminescence signal from live cells. Assay read steps were set as follows: baseline acquisition of 2 min, the addition of 10 μl of varying 3× concentrations of test-peptides or vehicle followed by 11 min measurement (measurement window 1), and 10 μl addition of 4× concentration of the endogenous melanocortin agonist α-MSH (Bachem, Bubendorf, Switzerland) followed by an additional 11 min response measurement (measurement window 2). The resulting final concentration of α-MSH was close to the respective receptor EC90 dose for each receptor. Intraplate concentration response curves for α-MSH and SHU-9119 (Phoenix Pharmaceuticals, Burlingame CA) were included as reference controls. A submaximal forskolin (20 μM) concentration was also included to serve as a normalization reference to account for cell number variations and differences in assay transducer efficiency between cell lines.
With this set up it was possible to evaluate the direct effect of the test-peptides on the MC3R and MC4R cell lines during measurement window 1, while the antagonist profile in the presence of EC90 α-MSH was determined on measurement window 2. For data analysis baseline luminescence (i.e. the maximum luminescence signal from the initial 0 to 2 min window) was subtracted from the maximum luminescence obtained during measurement window 1 (2 to 13 min) and measurement window 2 (13 to 24 min) to yield the test-peptide elicited responses. EC50 or IC50 potency values were determined by non-linear regression by fitting the data to a sigmoid four-parameter variable slope model using the GraphPad Prism version 8.4 software package (San Diego CA).

In experiment [2] the target is T2, human MC3R (Homo sapiens, UniProt P41968).
T2 construct: expressed in transfected cells; host or cells: HEK-293 cells stably expressing the GScAMP22F split-luciferase cAMP sensor (parent reporter line from Promega); MC3R clone generated in-house, G418 selection
The experiment in a line: split-luciferase cAMP sensor assay, agonist mode (measurement window 1), hMC3R. Particulars: for Emax: % maximal activation, read-out: MC3R cAMP % max activation; for Emax / EC50: agonist mode; for EC50: HEK-293 cells stably expressing hMC3R, read-out: MC3R cAMP EC50; for MC4R selectivity vs MC3R: MC4R versus MC3R. The gist of the method: (§1)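 Live stable cell lines carrying receptor plus GloSensor cAMP22f split-luciferase, loaded with 4% D-luciferin in serum-free medium (~1% serum estimated during assay). Luminescence recorded during in-line peptide addition; direct agonist effect read in window 1, with 20 μM forskolin as normalization reference. EC50 from four-parameter sigmoid fit.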

For experiment [3], the target named is T3, human MC4R (Homo sapiens, UniProt P32245).
T3 construct: host or cells: HEK-293 cells stably expressing the GScAMP22F split-luciferase cAMP sensor and hMC4R, G418 selection
The experiment in a line: split-luciferase cAMP sensor assay, agonist mode (measurement window 1), hMC4R. Particulars: agonist mode; for Emax: % maximal activation, read-out: MC4R cAMP % max activation; for EC50: HEK-293 cells stably expressing hMC4R, read-out: MC4R cAMP EC50. Summed up:
as §1

As a reminder, the EC50 is the midpoint of the concentration-response curve.

T3 sequence (P32245 whole entry): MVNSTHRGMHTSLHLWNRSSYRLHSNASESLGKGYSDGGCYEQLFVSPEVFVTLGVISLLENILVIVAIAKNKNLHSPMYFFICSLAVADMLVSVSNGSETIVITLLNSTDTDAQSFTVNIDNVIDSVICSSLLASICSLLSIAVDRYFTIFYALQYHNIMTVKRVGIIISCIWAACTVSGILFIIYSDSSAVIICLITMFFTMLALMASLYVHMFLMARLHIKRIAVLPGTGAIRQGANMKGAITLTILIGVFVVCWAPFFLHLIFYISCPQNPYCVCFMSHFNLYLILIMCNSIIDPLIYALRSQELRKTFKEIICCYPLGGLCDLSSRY
T1 sequence (Q01726 whole entry): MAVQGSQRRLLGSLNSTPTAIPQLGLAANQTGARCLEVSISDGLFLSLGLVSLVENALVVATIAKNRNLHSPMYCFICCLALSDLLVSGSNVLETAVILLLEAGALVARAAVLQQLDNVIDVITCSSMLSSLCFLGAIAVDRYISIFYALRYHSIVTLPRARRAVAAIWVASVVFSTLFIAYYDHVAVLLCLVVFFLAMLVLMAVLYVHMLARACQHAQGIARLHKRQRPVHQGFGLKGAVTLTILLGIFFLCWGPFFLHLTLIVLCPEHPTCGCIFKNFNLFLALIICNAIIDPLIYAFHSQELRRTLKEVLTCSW
T2 sequence (P41968 whole entry): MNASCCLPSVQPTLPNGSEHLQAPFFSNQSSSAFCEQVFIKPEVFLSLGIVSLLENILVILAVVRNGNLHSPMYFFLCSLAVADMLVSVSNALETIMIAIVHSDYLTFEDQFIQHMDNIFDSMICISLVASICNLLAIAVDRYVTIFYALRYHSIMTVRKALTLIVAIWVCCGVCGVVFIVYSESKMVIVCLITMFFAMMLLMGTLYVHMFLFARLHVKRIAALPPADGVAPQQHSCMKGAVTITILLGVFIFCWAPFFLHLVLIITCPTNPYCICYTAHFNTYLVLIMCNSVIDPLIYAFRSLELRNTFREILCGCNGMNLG

`CC(=O)N[C@@H](CCCNC(=N)N)C(=O)N[C@H]1CSSC[C@@H](C(N)=O)NC(=O)[C@@H](Cc2ccc3ccccc3c2)NC(=O)[C@H](CCCNC(=N)N)NC(=O)[C@@H](Cc2ccccc2)NC(=O)[C@H](CCCNC(=N)N)NC(=O)[C@@H](C)NC1=O` [CTX-1264, Arg-cyclo(Cys-D-Ala-Arg-D-Phe-Arg-D-Nal(2′)-Cys)] (Ac-RC[dA]R[dF]R[d2Nal]C-NH2; disulfide 2-8 (inferred)): in experiment [1], the “MC4R selectivity vs MC1R” value was 0.14. In experiment [2], the Emax was 44%, the concentration for a half-maximal effect (EC50) came to 3.7 nM and the “MC4R selectivity vs MC3R” value is 0.29. Further, in experiment [3], the Emax was found to be 80% and the half-maximal effective concentration (EC50) was determined as 13 nM.

Take `CCCC[C@H](NC(=O)[C@H](CCCNC(=N)N)NC(C)=O)C(=O)N[C@H]1CSSC[C@@H](C(N)=O)NC(=O)[C@H](Cc2c[nH]c3ccccc23)NC(=O)[C@H](CCCNC(=N)N)NC(=O)[C@@H](Cc2ccccc2)NC(=O)[C@H](Cc2cccnc2)NC1=O` [CTX-1620, Arg-Nle-cyclo(Cys-Pal(3′)-D-Phe-Arg-Trp-Cys)] (Ac-R[Nle]C[3Pal][dF]RWC-NH2; disulfide 3-8 (inferred)): in experiment [1], the “MC4R selectivity vs MC1R” value is reported as 47. Further, in experiment [2], the Emax is 39% and the “MC4R selectivity vs MC3R” value came out at 12. The Emax in experiment [3] amounted to 91%.

As to `CCCC[C@H](NC(=O)[C@H](CCCNC(=N)N)NC(C)=O)C(=O)N[C@H]1CSSC[C@@H](C(N)=O)NC(=O)[C@H](Cc2c[nH]c3ccccc23)NC(=O)[C@H](CCCNC(=N)N)NC(=O)[C@@H](Cc2cccc3ccccc23)NC(=O)[C@H](CCCNC(=N)N)NC1=O` [CTX-1611, Arg-Nle-cyclo(Cys-Arg-D-Nal(1′)-Arg-Trp-Cys)] (Ac-R[Nle]CR[d1Nal]RWC-NH2; disulfide 3-8 (inferred)), in experiment [1], the “MC4R selectivity vs MC1R” value was 0.25. For the same compound, in experiment [2], the Emax came out at 58%, the EC50 was 11 nM and the “MC4R selectivity vs MC3R” value is 6.61. Further, in experiment [3], the Emax turned out to be 67% and the EC50 was 1.6 nM.

As to `CC(=O)N[C@H]1CSSC[C@@H](C(N)=O)NC(=O)[C@H](Cc2c[nH]c3ccccc23)NC(=O)[C@H](CCCNC(=N)N)NC(=O)[C@@H](Cc2ccccc2)NC(=O)[C@H](CCCNC(=N)N)NC(=O)C(C)(C)NC1=O` [CTX-1632, cyclo(Cys-Aib-Arg-D-Phe-Arg-Trp-Cys)] (Ac-C[Aib]R[dF]RWC-NH2; disulfide 1-7), in experiment [1], the “MC4R selectivity vs MC1R” value is recorded as 3.18. The Emax turned out to be 77% in experiment [2] and 105% in experiment [3]. The “MC4R selectivity vs MC3R” value in experiment [2] is recorded as 36.

Take `C[C@H]1NC(=O)CSC[C@@H](C(N)=O)NC(=O)[C@H](Cc2ccccc2)NC(=O)[C@H](CCCNC(=N)N)NC(=O)[C@@H](Cc2ccccc2)NC(=O)[C@H](CCCNC(=N)N)NC1=O` [CTX-1657, Thioether-cyclo(D-Ala-Arg-D-Phe-Arg-Phe-Cys)] ({CH2CO}-[dA]R[dF]RFC-NH2; thioether N-6): the “MC4R selectivity vs MC1R” value in experiment [1] is on record as 1.42. For the same compound, the Emax in experiment [2] was 30%; in experiment [3], 78%. For the same compound, the “MC4R selectivity vs MC3R” value in experiment [2] is given as 3.56.

Take `CC(=O)N[C@H]1CSSC[C@@H](C(N)=O)NC(=O)[C@H](Cc2ccccc2)NC(=O)[C@H](CCCNC(=N)N)NC(=O)[C@@H](Cc2ccccc2)NC(=O)[C@H](CCCNC(N)=O)NC(=O)CNC1=O` [CTX-1639, cyclo(Cys-Gly-Cit-D-Phe-Arg-Phe-Cys)] (Ac-CG[Cit][dF]RFC-NH2; disulfide 1-7 (inferred)): in experiment [1], the “MC4R selectivity vs MC1R” value is 8.32. Further, in experiment [2], the Emax was 44% and the “MC4R selectivity vs MC3R” value is reported as 2.82. In experiment [3], the Emax was found to be 88%.

As for `CC1(C)NC(=O)CSC[C@@H](C(N)=O)NC(=O)[C@H](Cc2ccccc2)NC(=O)[C@H](CCCNC(=N)N)NC(=O)[C@@H](Cc2ccccc2)NC(=O)[C@H](CCCNC(N)=O)NC1=O` [CTX-1652, Thioether-cyclo(Aib-Cit-D-Phe-Arg-Phe-Cys)] ({CH2CO}-[Aib][Cit][dF]RFC-NH2; thioether N-6), the “MC4R selectivity vs MC1R” value in experiment [1] is on record as “Not active”. Further, in experiment [2], the EC50 was > 10000 nM and the “MC4R selectivity vs MC3R” value is recorded as “Not active”. Further, in experiment [3], the EC50 was > 10000 nM.

With `CC(=O)N[C@@H](CCCNC(=N)N)C(=O)N[C@H]1CSSC[C@@H](C(N)=O)NC(=O)[C@H](Cc2ccccc2)NC(=O)[C@H](CCCNC(=N)N)NC(=O)[C@@H](Cc2ccccc2)NC(=O)[C@H](Cc2ccncc2)NC(=O)C(C)(C)NC1=O` [CTX-1606, Arg-cyclo(Cys-Aib-Pal(4′)-D-Phe-Arg-Phe-Cys)] (Ac-RC[Aib][4Pal][dF]RFC-NH2; disulfide 2-8 (inferred)), in experiment [1], the “MC4R selectivity vs MC1R” value worked out at 2.99. Also, in experiment [2], the Emax amounted to 7.69% and the “MC4R selectivity vs MC3R” value worked out at 0.62. Further, the Emax in experiment [3] was 92%.

Regarding `C[C@H]1NC(=O)CSC[C@@H](C(N)=O)NC(=O)[C@H](Cc2c[nH]c3ccccc23)NC(=O)[C@H](CCCNC(=N)N)NC(=O)[C@@H](Cc2ccccc2)NC(=O)[C@H](CCCNC(=N)N)NC1=O` [CTX-1642, Thioether-cyclo(D-Ala-Arg-D-Phe-Arg-Trp-Cys)] ({CH2CO}-[dA]R[dF]RWC-NH2; thioether N-6), in experiment [1], the “MC4R selectivity vs MC1R” value came to 13. Also, in experiment [2], the Emax is 90% and the “MC4R selectivity vs MC3R” value turned out to be 29. Further, in experiment [3], the Emax turned out to be 107% and the EC50 worked out at 2.9 nM.

For the compound `CCCC[C@H](NC(=O)[C@H](CCCNC(=N)N)NC(C)=O)C(=O)N[C@H]1CSSC[C@@H](C(N)=O)NC(=O)[C@H](Cc2ccccc2)NC(=O)[C@H](CCCNC(=N)N)NC(=O)[C@@H](Cc2ccccc2)NC(=O)[C@H](CCCNC(N)=O)NC1=O` [CTX-1626, Arg-Nle-cyclo(Cys-Cit-D-Phe-Arg-Phe-Cys)] (Ac-R[Nle]C[Cit][dF]RFC-NH2; disulfide 3-8 (inferred)), the “MC4R selectivity vs MC1R” value in experiment [1] came out at 3.05. Further, in experiment [2], the Emax stood at 51% and the “MC4R selectivity vs MC3R” value came to 1.6. Besides, the Emax in experiment [3] is 83%.

As for `N=C(N)NCCC[C@@H]1NC(=O)[C@@H](Cc2ccccc2)NC(=O)[C@H](Cc2c[nH]cn2)NC(=O)CNC(=O)CSC[C@@H](C(N)=O)NC(=O)[C@H](Cc2ccccc2)NC1=O` [CTX-1653, Thioether-cyclo(Gly-His-D-Phe-Arg-Phe-Cys)] ({CH2CO}-GH[dF]RFC-NH2; thioether N-6), the “MC4R selectivity vs MC1R” value in experiment [1] amounted to 0.83. Further, in experiment [2], the EC50 was > 10000 nM and the “MC4R selectivity vs MC3R” value was >8. In experiment [3], the Emax came to 83% and the concentration for a half-maximal effect (EC50) is 1230 nM.

Turning to `CC(=O)N[C@@H](CCCNC(=N)N)C(=O)N[C@H]1CSSC[C@@H](C(N)=O)NC(=O)[C@@H](Cc2c[nH]c3ccccc23)NC(=O)[C@H](CCCNC(=N)N)NC(=O)[C@@H](Cc2ccccc2)NC(=O)[C@H](CCCNC(=N)N)NC(=O)[C@@H](C)NC1=O` [CTX-1263, Arg-cyclo(Cys-D-Ala-Arg-D-Phe-Arg-D-Trp-Cys)] (Ac-RC[dA]R[dF]R[dW]C-NH2; disulfide 2-8), the “MC4R selectivity vs MC1R” value in experiment [1] is recorded as 1.73. In experiment [2], the Emax came to 69%, the EC50 amounted to 11 nM and the “MC4R selectivity vs MC3R” value was found to be 1.62. In experiment [3], the Emax worked out at 93%.
